Values quoted from earlier work, collected in patent US20130028868A1 (priority 2011, published 2013).
Where two headings read alike, the source gives them in different places.

Assays:
[1] = BDIX rats (50 rats); 3 weeks, 1 mg/kg/week
[2] = not given; remark: listed apart in the source
cells = details: in vitro experiments
[3] = in vivo
[4] = by Cisplatin
[5] = not given; remark: listed apart in the source

Row | Compound | marrow inhibition incidence (dosage amount≦100 mg/m2) | marrow inhibition incidence (dosage≧120 mg/m2) | chromosome aberration (animal tissue culture) | deaths within 455 days after first time administration [1] | died from leukemia [1] | died from malignant tumor [1] | died from renal fibrosarcoma [1] | excreted along with urine ([2]; 96 hours after treatment) [%˜45] | drug in human milk ([2]; reports) | radiosensitization (cells) | incidence rate of serious neurotoxicity [3] [%] | reduction of clearance of the drug [4] | renal clearance of the drug (share) ([5]; in vivo) | protein binding ([5]; intravenous paclitaxel)
1 | N.N.[Cl][Pt][Cl] [Cisplatin] | 10˜20% | about 40% | causing chromosome aberration | 33 | 12 | 13 | 1 | 25 | drug detected in human milk |  |  |  |  | 
2 | CC(=O)O[C@H]1C(=O)[C@@]2(C)[C@H]([C@H](OC(=O)c3ccccc3)[C@]3(O)C[C@H](OC(=O)[C@H](O)[C@@H](NC(=O)c4ccccc4)c4ccccc4)C(C)=C1C3(C)C)[C@]1(OC(C)=O)CO[C@@H]1C[C@@H]2O [Paclitaxel] |  |  |  |  |  |  |  |  |  | significant radiosensitization | 6 | about ⅓ | 1-8% | 89%-98
